Data taken from PMC5402304, “Oxoaporphine Metal Complexes (Co^II, Ni^II, Zn^II) with High Antitumor Activity by Inducing Mitochondria-Mediated Apoptosis and S-phase Arrest in HepG2” (Scientific Reports, 2017).

Experiments:
T-24 = assay: MTT cytotoxicity assay, T-24; type: cell-based, human
Experimental: (§1) The in vitro cytotoxicity of OD, 1–3 and the corresponding metal salts were determined by MTT assay towards a panel of human tumor cells including HepG2, T-24, BEL-7404, MGC80-3, SK-OV-3/DDP and normal HL-7702 cells. As the positive control, cisplatin was dissolved at a concentration of 1 mM in 0.154 M NaCl[32].
(§2) The human tumor cell lines (BEL-7404, HepG2, MGC80–3, T-24, SK-OV-3/DDP and HeLa cells) and the human normal liver cell line HL-7702 were obtained from Shanghai Cell Bank in Chinese Academy of Sciences. Cells were cultured in Dulbecco’s modified Eagle’s medium (DMEM) or RPMI-1640 medium, which supplemented with 10% fetal bovine serum (FBS) and 100 U/mL penicillin and streptomycin. Cells were cultured at 37 °C in a humidified atmosphere with 5% CO2/95% air. Tested compounds (2.0 mM) were prepared as DMSO stock solution before they were diluted to working concentrations by PBS buffer (containing 0.5% DMSO), while cisplatin dissolved in 0.9% sodium chloride solution was used as positive controls.
(§3) Cells in their logarithmic phase were seeded in 96-well plates with 5.5 × 10^3/180 μL per well for 24 h. Then 20 μL of compounds at various concentrations were added to each well to achieve final concentrations of 1.25, 2.5, 5.0, 10.0, and 20.0 μM. All the cells were incubated with test compounds for another 48 h before MTT assay. Control wells contained media with 0.5% DMSO. After 48 h of cultivation, 10 μL of MTT (5 mg/mL in PBS) was added to each well, and cells were incubated at 37 °C for 6 h. The contents in the wells were pipetted out carefully, and the formazan crystals formed were dissolved in 100 μL of DMSO, and the absorbance was measured by enzyme labeling instrument with 490 nm/630 nm double wavelength measurement. The IC50 value was defined as a drug concentration killing 50% cells in comparison with untreated controls, which was calculated by the Bliss method (n = 5). All tests were repeated in at least three independent trials.

SK-OV-3/DDP = assay: MTT cytotoxicity assay, SK-OV-3/DDP; type: cell-based, human; settings: 48 h
Experimental: as §1, §2, §3

HL-7702 = assay: MTT cytotoxicity assay, normal liver cells HL-7702; type: cell-based, human; settings: 48 h
Experimental: as §1, §2, §3

HepG2 cells = assay: Comet assay for DNA damage; type: cell-based, human; set-up: unit not given here; settings: HepG2, 1.0 μM, 24 h
Experimental: After the observation of significant S-phase arrest caused by 1–3, the study of DNA damage assay is necessary. The single cell gel electrophoresis technique (comet assay) is a simple, sensitive, reliable, and rapid method to detect DNA damage in eukaryotic cell[39]. As shown in Table 3 and Fig. 6, 1–3 at 1.0 μM induced DNA damage (fragmentation or unwinding) appeared as fluorescent comets with remarkable increase of tails size, especially for 3.
The comet assay is a simple method for measuring DNA strand breaks in cells. The comet assay reagent kit was purchased from Trevigen, and the experiment was carried out according to the manufacturer’s instructions. After treatment with OD and 1–3 at 1.0 μM, HepG2 cells were harvested and suspended at 1 × 10^6 Hep-G2 cells/mL in PBS. The cells suspension was mixed with melted LM agarose at a ratio of 1:10 (v/v). An aliquot (75 μL) of the mixture was immediately pipetted onto the slide (Comet Slide TM). After refrigeration for 30 min, the slide was immersed in pre-chilled lysis solution and left on ice for 60 min, followed by immersing in freshly prepared alkaline solution (300 mM NaOH, 1 mM EDTA, pH > 13) for 60 min on ice in darkness. After DNA unwinding, the slide was subjected to alkaline solution for electrophoresis in a Savant ps 250 system set at 300 mA and 1 volt/cm for 30 min. After electrophoresis, the slide was rinsed with distilled H2O, fixed in 70% ethanol for 5 min and air-dried overnight. DNA was stained with SYBR Green I (Trevigen) and visualized under a fluorescence microscope (Nikon, Eclipse E600).

caspase-9 = assay: Caspase-9 activation by flow cytometry (CaspGLOW); type: cell-based, human; settings: HepG2, 1.0 μM, 24 h; control 1.9%
Experimental: Caspase family is closely related to the cell apoptosis via the mitochondrial pathway, especially caspases-3, -8 and -9. To better understand the antitumor mechanisms, it needs to confirm whether caspase-3, -8 and -9 are activated when the tumor cells are treated with 1–3.
The measurement of caspase-3, -8 and -9’s activities was performed by CaspGLOW fluorescein active caspase-3, -8 and -9 staining kit. HepG2 cells were treated with 1 μM 1–3 for 24 h, harvested at a density of 1 × 10^6 cells/mL, and then suspended in 300 μL volume with PBS. To the suspension, 1 μL of caspase-3 inhibitor (FITC-DEVD-FMK), caspase-8 inhibitor (FITC-IETD-FMK) or caspase-9 inhibitor (FITC-LEHD-FMK) was consequently added and incubated for 1 h at 37 °C in 5% CO2 incubator. The cells were then examined by a FACSAria II flow cytometer equipped with a 488 nm argon laser. The results were represented as the percent change on the activity compared with the control.

HepG2 xenograft = HepG2 xenograft nude mice model, tumor growth inhibition; type: in vivo, BALB/c nude mice
Experimental: The mice were randomized into control group, 3-treated groups and positive control group (n = 6). Once the tumor had grown to an average volume of about 100 mm^3, two group of nude mice were injected intraperitoneally (ip) of 3 at a high dose (6.0 mg/kg) and a low (3.0 mg/kg) dose daily for 20 days, respectively. Cisplatin was used as positive control injected at 2.0 mg/kg every two days, while control group received solvents only.
BALB/c nude mice (male, 17–20 g, 5–6 weeks old) were supplied by Guangxi Medical University Laboratory Animal Centre (Guangxi, China, approval no. SCXK 2014–0002 and SYXK 2014–0003). All of the experimental procedures were carried out according to the NIH Guidelines for the Care and Use of Laboratory Animals. Animal experiments were approved by the Animal Care and Use Committee of Guangxi Medical University. Animal were housed at IVC system (individual ventilated caging) with conditions of constant photoperiod (12 h light/12 h dark at 25−28 °C and 45−65% humidity). The xenograft tumor model was established in the same way as we reported before[30]. The maximum solubility of 3 in DMSO/saline solvent (v/v, 5/100) with administration volume 0.8 mL/20 g was used as the high dose (6.0 mg/kg) group (n = 6). Meanwhile low dose group mice got 3.0 mg/kg, intraperitoneal injection every day, and the control group received corresponding solvent. The positive control group was administered with cisplatin at 2.0 mg/kg every two days by intraperitoneal injection (cisplatin dissolved in saline).
The tumor volumes and body weight were measured every 3 days, and tumor size was calculated as volume = (w^2l)/2, where w is the width and l is the length in mm of tumor[70]. On day 21, the mice were sacrificed, and the tumor tissue was dissected out and weighted. The in vivo antitumor activity is evaluated by two indicators[71][72]: the tumor relative increment rate (T/C = TRTV/CRTV × 100%) and tumor weight inhibition rate [IR = (Wc − Wt)/Wc × 100%,], where TRTV and CRTV were the RTV of treated group and control group, respectively (RTV: relative tumor volume, RTV = Vt /V0); Wt and Wc are the average tumor weight of complex-treated and vehicle controlled group, respectively.

Q: Which inhibitive ratio (T-24; T-24, 20 μmol/L, 48 h) does the source give for [Zn(OD)2(H2O)2] (ClO4)2 [Complex 3] here?
A: 84.16±0.76%

Q: What about the IC50 (T-24; T-24, 48 h, MTT) of the same substance?
A: 0.51 ± 0.17 µM

Q: What about the IC50 (SK-OV-3/DDP; SK-OV-3/DDP, MTT) of the same substance?
A: 0.57 ± 0.07 µM

Q: And the inhibitive ratio (SK-OV-3/DDP; SKOV-3/DDP, 20 μmol/L)?
A: 70.80±1.69%

Q: And the inhibitive ratio (HL-7702; HL-7702, 20 μmol/L)?
A: 59.26±0.15%

Q: What about the IC50 (HL-7702; HL-7702 normal liver cells, MTT) of the same substance?
A: 7.13 ± 0.46 µM

Q: What about the Comet length (HepG2 cells) of the same substance?
A: 119.12 ± 6.59

Q: What about the Olive tail moment (HepG2 cells) of the same substance?
A: 22.67 ± 3.76

Q: What about the Tail length (HepG2 cells) of the same substance?
A: 58.67 ± 9.14

Q: What about the Tail moment (HepG2 cells) of the same substance?
A: 30.46 ± 6.98

Q: And the “proportion of activated caspase-9” value (caspase-9)?
A: 32.6%

Q: And the “IR (tumor weight inhibition rate)” value (HepG2 xenograft; 3.0 mg/kg ip daily for 20 days)?
A: 26.4%

Q: And the “T/C (tumor relative increment rate)” value (HepG2 xenograft; 3.0 mg/kg ip daily for 20 days)?
A: 75.49%

Q: What about the “IR (tumor weight inhibition rate)” value (HepG2 xenograft; 6.0 mg/kg ip daily for 20 days) of the same substance?
A: 32.8%

Q: What about the “T/C (tumor relative increment rate)” value (HepG2 xenograft; 6.0 mg/kg ip daily for 20 days) of the same substance?
A: 55.57%
